According to patent EP0588317A1 (priority 1992, dated 1994):
Like-named read-outs stand apart in the source and are kept apart here.

Assays:
[1] = solubility in soybean oil; assay type: physicochemical
Text: The oil phase component used for preparing fat emulsions (or lipid emulsions) may be any of those conventionally used for preparing fat emulsions (or lipid emulsions), including vegetable oils such as soybean oil, cottonseed oil, synthetic triglycerides such as Panasate 800, Panasate 810 (trade name; manufactured by Nippon Yushi), squalene, eicosapentaenoic acid, azone, and the like. For preparing fat emulsions (or lipid emulsions), high solubility in these oil components is required for substance to be fat-emulsified (or lipid-emulsified). The compound of the present invention has a high solubility in these oil components, for example, 300 mg/ml or more in soybean oil at 40°C. The fat emulsions (or lipid emulsions) can be prepared by dissolving the compound of the present invention in soybean oil, Panasate, etc., adding lecithin to the solution, crude-emulsifying the mixture with a homomixer, etc., and then fine-emulsifying with a nanomizer under high pressure.

colon 26 cells = assay: anti-tumor activity of fat emulsion given intravenously to mice inoculated with colon 26 cells; assay type: in vivo; details: fat emulsions, 14 days, dose per day 50 mg/kg
[2] = versus 5-fluorouracil; cited from earlier work
[3] = system: established cell line derived from mice; details: at the same molar concentration, in vitro, versus 5-fluorouracil; cited from earlier work

In the case of `CCCCC/C=C\C/C=C\CCCCCCCC(=O)OCn1c(=O)c(F)cn([C@H]2C[C@H](OC(=O)Oc3ccccc3)[C@@H](COC(=O)Oc3ccccc3)O2)c1=O` [Example 15, 3',5'-O-diphenoxycarbonyl-3-linolyloxymethyl-2'-deoxy-5-fluorouridine], the “solubility of this compound in soybean” value [1] is reported as 150 mg/0.5 ml.
With `CCCCCCC(=O)OCn1c(=O)c(F)cn([C@@H]2O[C@H](COC(=O)CCC)[C@@H](OC(=O)CCC)[C@H]2OC(=O)CCC)c1=O` [Example 20, 2',3',5'-O-tri-n-butyryl-3-n-heptanoyloxymethyl-5-fluorouridine] the “solubility of this compound in soybean oil” value [1] was > 300 mg/soybean oil 1 ml.
With `CCCCCCC(=O)OCn1c(=O)c(F)cn([C@H]2C[C@H](OC(=O)CCC)[C@@H](COC(=O)CCC)O2)c1=O` [Example 4] the growth inhibiting activity (colon 26 cells; male mice inoculated with colon 26 cells in the inguinal region) was “more than 90%”, the body weight (colon 26 cells; male mice inoculated with colon 26 cells) was “without decrease of body weight” and the solubility ([1]; 40 °C, oil or lipid; soybean oil; read-out: solubility of this compound in soybean oil) was > 300 mg/mL.
For `CCCCC/C=C\C/C=C\CCCCCCCC(=O)OCn1c(=O)c(F)cn([C@@H]2O[C@H](COC(=O)CCC)[C@@H](OC(=O)CCC)[C@H]2OC(=O)CCC)c1=O` [Example 19, 2',3',5'-O-tri-n-butyryl-3-linolyloxymethyl-5-fluorouridine], the “solubility of this compound in soybean oil” value [1] was > 300 mg/soybean oil 1 ml.
For `CCCCC/C=C\C/C=C\CCCCCCCC(=O)OCn1c(=O)c(F)cn([C@H]2C[C@H](OC(=O)Oc3ccc(OC)cc3)[C@@H](COC(=O)Oc3ccc(OC)cc3)O2)c1=O` [Example 16, 3',5'-O-di(4-methoxyphenoxy-carbonyl)-3-linolyloxymethyl-2'-deoxy-5-fluorouridine], the “solubility of this compound in soybean” value [1] was 150 mg/0.5 ml.
For `CCCCC/C=C\C/C=C\CCCCCCCC(=O)OCn1c(=O)c(F)cn([C@H]2C[C@H](OC(C)=O)[C@@H](COC(C)=O)O2)c1=O` [Example 3, 3',5'-O-diacetyl-3-linolyloxymethyl-2'-deoxy-5-fluorouridine], the solubility ([1]; soybean oil, 40 °C, oil or lipid; read-out: solubility of this compound in soybean oil) was > 300 mg/mL.
For `O=c1[nH]c(=O)n([C@H]2C[C@H](O)[C@@H](CO)O2)cc1F` [FdUrd, 2'-Deoxy-5-fluorouridine], the “in vivo advantage over 5-fluorouracil” value [2] is given as “no advantage over 5-fluorouracil” and the “cancer inhibitory activity relative to 5-fluorouracil” value [3] is given as “more than 100 times”.
